Data from patent US8741897B2, “Glucocorticoid mimetics, methods of making them, pharmaceutical compositions and uses thereof” (Boehringer Ingelheim Pharmaceuticals Inc., priority 2003, dated 2014).

Key:
[1] = biological target: T1, human glucocorticoid receptor (GR) complex (Homo sapiens, UniProt P04150); test: Glucocorticoid receptor competitive binding assay (fluorescence polarization, TAMRA-labeled dexamethasone probe); settings: compounds of Formula (IA)
T1 construct: made in house; host or cells: insect expression system (baculovirus lysate)
T1 sequence (P04150 1-777): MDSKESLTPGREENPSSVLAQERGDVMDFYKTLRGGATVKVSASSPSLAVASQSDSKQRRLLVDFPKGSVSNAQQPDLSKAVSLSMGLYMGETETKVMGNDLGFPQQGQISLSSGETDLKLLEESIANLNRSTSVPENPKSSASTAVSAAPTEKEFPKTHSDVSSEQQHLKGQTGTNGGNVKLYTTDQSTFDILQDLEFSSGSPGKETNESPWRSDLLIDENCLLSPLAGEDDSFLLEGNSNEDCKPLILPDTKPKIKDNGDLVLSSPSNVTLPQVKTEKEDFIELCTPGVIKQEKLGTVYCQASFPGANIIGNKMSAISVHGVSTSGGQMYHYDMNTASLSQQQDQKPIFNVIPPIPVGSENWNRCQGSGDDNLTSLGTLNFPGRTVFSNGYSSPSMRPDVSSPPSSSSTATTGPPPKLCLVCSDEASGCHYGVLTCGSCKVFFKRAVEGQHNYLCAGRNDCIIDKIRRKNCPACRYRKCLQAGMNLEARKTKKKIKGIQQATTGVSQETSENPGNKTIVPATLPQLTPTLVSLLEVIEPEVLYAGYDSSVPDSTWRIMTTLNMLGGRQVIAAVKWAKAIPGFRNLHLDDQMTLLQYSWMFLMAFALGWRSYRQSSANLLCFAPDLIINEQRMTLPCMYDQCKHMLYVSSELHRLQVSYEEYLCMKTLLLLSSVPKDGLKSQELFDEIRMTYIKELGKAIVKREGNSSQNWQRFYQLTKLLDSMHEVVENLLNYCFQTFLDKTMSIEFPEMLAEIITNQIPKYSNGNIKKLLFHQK
Description: Compounds of the invention were evaluated for binding to the steroid receptor by a fluorescence polarization competitive binding assay. Detailed descriptions for preparation of recombinant glucocorticoid receptor (GR) complex used in the assay is described in U.S. patent application Pub.
A. Glucocorticoid Receptor Competitive Binding Assay
Step 1. Characterization of the Fluorescent Probe
The wavelengths for maximum excitation and emission of the fluorescent probe should first be measured. An example of such a probe is rhodamine (TAMRA)-labeled dexamethasone.
The affinity of the probe for the steroid receptor was then determined in a titration experiment. The fluorescence polarization value of the probe in assay buffer was measured on an SLM-8100 fluorometer using the excitation and emission maximum values described above. Aliquots of expression vector lysate were added and fluorescence polarization was measured after each addition until no further change in polarization value was observed. Non-linear least squares regression analysis was used to calculate the dissociation constant of the probe from the polarization values obtained for lysate binding to the probe.
Step 2. Screening for Inhibitors of Probe Binding
This assay uses fluorescence polarization (FP) to quantitate the ability of test compounds to compete with tetramethyl rhodamine (TAMRA)-labeled dexamethasone for binding to a human glucocorticoid receptor (GR) complex prepared from an insect expression system. The assay buffer was: 10 mM TES, 50 mM KCl, 20 mM Na2MoO4.2H2O, 1.5 mM EDTA, 0.04% w/v CHAPS, 10% v/v glycerol, 1 mM dithiothreitol, pH 7.4. Test compounds were dissolved to 1 mM in neat DMSO and then further diluted to 10× assay concentration in assay buffer supplemented with 10% v/v DMSO. Test compounds were serially diluted at 10× assay concentrations in 10% DMSO-containing buffer in 96-well polypropylene plates. Binding reaction mixtures were prepared in 96-well black Dynex microtiter plates by sequential addition of the following assay components to each well: 15 μL of 10× test compound solution, 85 μL of GR-containing baculovirus lysate diluted 1:170 in assay buffer, and 50 μL of 15 nM TAMRA-labeled dexamethasone. Positive controls were reaction mixtures containing no test compound; negative controls (blanks) were reaction mixtures containing 0.7 μM to 2 μM dexamethasone. […] IC50 values were determined by iterative non-linear curve fitting of the FP signal data to a 4-parameter logistic equation.

[2] = test system: glucocorticoid receptor function; test: one or more of the above assays (GR binding and glucocorticoid receptor cell assays: aromatase, IL-6, TAT, MMTV-Luc, IL-8, ICAM-Luc); format: cell-based; settings: assay not specified per compound

SMILES | activity in the GR binding assay [1] | activity as agonists of the glucocorticoid receptor function in one or more of the above assays [2]
COc1ccc(F)cc1C(C)(C)CC(O)(Cc1cc2cnccc2o1)C(F)(F)F (stereo not drawn) [1,1,1-Trifluoro-4-(5-fluoro-2-methoxyphenyl)-2-furo[3,2-c]pyridin-2-ylmethyl-4-methylpentan-2-ol] | potent activity | –
COc1ccc(F)cc1C(C)(C)CC(O)(Cn1ccc2ncccc21)C(F)(F)F (stereo not drawn) [1,1,1-Trifluoro-4-(5-fluoro-2-methoxyphenyl)-4-methyl-2-pyrrolo[3,2-b]pyridin-1-ylmethylpentan-2-ol] | potent activity | –
COc1ccc(F)cc1C(C)(C)CC(O)(Cn1ccc2cnccc21)C(F)(F)F (stereo not drawn) [1,1,1-Trifluoro-4-(5-fluoro-2-methoxyphenyl)-4-methyl-2-pyrrolo[3,2-c]pyridin-1-ylmethylpentan-2-ol] | potent activity | –
Cc1cccc2c(CC(O)(CC(C)(C)c3cc(F)ccc3O)C(F)(F)F)cc(Cl)nc12 (stereo not drawn) [2-[3-(2-Chloro-8-methylquinolin-4-ylmethyl)-4,4,4-trifluoro-3-hydroxy-1,1-dimethylbutyl]-4-fluorophenol] | potent activity | –
Cc1ccc(F)cc1C(C)(C)CC(O)(Cc1cc2cc(=O)[nH]cc2[nH]1)C(F)(F)F (stereo not drawn) [2-[4-(5-Fluoro-2-methylphenyl)-2-hydroxy-4-methyl-2-trifluoromethylpentyl]-1,6-dihydropyrrolo[2,3-c]pyridin-5-one] | potent activity | –
COc1ccc(F)cc1C(C)(C)CC(O)(Cc1cc2cc(C(=O)NCC(=O)O)ccc2[nH]1)C(F)(F)F (stereo not drawn) [({2-[4-(5-Fluoro-2-methoxyphenyl)-2-hydroxy-4-methyl-2-trifluoromethylpentyl]-1H-indole-5-carbonyl}amino)acetic acid] | potent activity | –
CC(C)(CC(O)(Cc1cc2ccccc2[nH]1)C(F)(F)F)c1ccc(C(F)(F)F)cc1 (stereo not drawn) [1,1,1-Trifluoro-2-(1H-indol-2-ylmethyl)-4-methyl-4-(4-trifluoromethylphenyl)pentan-2-ol] | potent activity | –
COc1ccc(F)cc1C(C)(C)CC(O)(Cc1cc2cc(C(=O)N3CCCCC3)ccc2[nH]1)C(F)(F)F (stereo not drawn) [{2-[4-(5-Fluoro-2-methoxyphenyl)-2-hydroxy-4-methyl-2-trifluoromethylpentyl]-1H-indol-5-yl}piperidin-1-ylmethanone] | potent activity | –
COc1ccc(F)cc1C(C)(C)CC(O)(Cc1cc2cc(C(=O)OCC[Si](C)(C)C)ccc2[nH]1)C(F)(F)F (stereo not drawn) [2-[4-(5-Fluoro-2-methoxyphenyl)-2-hydroxy-4-methyl-2-trifluoromethylpentyl]-1H-indole-5-carboxylic acid-2-trimethylsilanylethyl ester] | potent activity | –
CC(C)(CC(O)(Cc1cc2cc(C(=O)O)ccc2[nH]1)C(F)(F)F)c1cc(Br)cc2c1OCC2 (stereo not drawn) [2-[4-(5-Bromo-2,3-dihydrobenzofuran-7-yl)-2-hydroxy-4-methyl-2-trifluoromethylpentyl]-1H-indole-5-carboxylic acid] | potent activity | –
COc1ccc(F)cc1C(C)(C)CC(O)(Cc1ccncc1)C(F)(F)F (stereo not drawn) [1,1,1-Trifluoro-4-(5-fluoro-2-methoxyphenyl)-4-methyl-2-pyridin-4-ylmethylpentan-2-ol] | potent activity | –
CC(C)(CC(O)(Cc1cc2cnccc2s1)C(F)(F)F)c1cc(Cl)cc2c1OCC2 (stereo not drawn) [4-(5-Chloro-2,3-dihydrobenzofuran-7-yl)-1,1,1-trifluoro-4-methyl-2-thieno[3,2-c]pyridin-2-ylmethylpentan-2-ol] | potent activity | –
COc1ccc(F)cc1C(C)(C)CC(O)(Cc1cc2ccccc2s1)C(F)(F)F (stereo not drawn) [2-Benzo[b]thiophen-2-ylmethyl-1,1,1-trifluoro-4-(5-fluoro-2-methoxyphenyl)-4-methylpentan-2-ol] | potent activity | –
COc1ccc(F)cc1C(C)(C)CC(O)(Cc1cc2ccc(C(N)=O)cc2[nH]1)C(F)(F)F (stereo not drawn) [2-[4-(5-Fluoro-2-methoxyphenyl)-2-hydroxy-4-methyl-2-trifluoromethylpentyl]-1H-indole-6-carboxylic acid amide] | potent activity | –
COc1ccc(F)cc1C(C)(C)CC(O)(Cc1cc2cnccc2s1)C(F)(F)F (stereo not drawn) [1,1,1-Trifluoro-4-(5-fluoro-2-methoxyphenyl)-4-methyl-2-thieno[3,2-c]pyridin-2-ylmethylpentan-2-ol] | potent activity | –
COc1ccc(F)cc1C(C)(C)CC(O)(Cc1cc2cc(C(=O)N3CCC(O)CC3)ccc2[nH]1)C(F)(F)F (stereo not drawn) [{2-[4-(5-Fluoro-2-methoxyphenyl)-2-hydroxy-4-methyl-2-trifluoromethylpentyl]-1H-indol-5-yl}(4-hydroxypiperidin-1-yl)methanone] | potent activity | –
COc1ccc(F)cc1C(C)(C)CC(O)(Cc1cc(Cl)nc2ccc(Cl)cc12)C(F)(F)F (stereo not drawn) [2-(2,6-Dichloroquinolin-4-ylmethyl)-1,1,1-trifluoro-4-(5-fluoro-2-methoxyphenyl)-4-methylpentan-2-ol] | potent activity | –
COc1ccc(F)cc1C(C)(C)CC(O)(Cc1cc2cc(C(=O)N3CCC(=O)CC3)ccc2[nH]1)C(F)(F)F (stereo not drawn) [1-{2-[4-(5-Fluoro-2-methoxyphenyl)-2-hydroxy-4-methyl-2-trifluoromethylpentyl]-1H-indole-5-carbonyl}piperidin-4-one] | potent activity | –
CC(C)(CC(O)(Cc1[nH]c2ccccc2c1Br)C(F)(F)F)c1cccc(F)c1 (stereo not drawn) [2-(3-Bromo-1H-indol-2-ylmethyl)-1,1,1-trifluoro4-(3-fluorophenyl)-4-methylpentan-2-ol] | potent activity | –
CNC(=O)c1ccc2[nH]c(CC(O)(CC(C)(C)c3cc(F)ccc3OC)C(F)(F)F)cc2c1 (stereo not drawn) [2-[4-(5-Fluoro-2-methoxyphenyl)-2-hydroxy-4-methyl-2-trifluoromethylpentyl]-1H-indole-5-carboxylic acid methylamide] | potent activity | –
CC(C)(CC(O)(Cc1cc2ccc(C(N)=O)cc2[nH]1)C(F)(F)F)c1cc(F)ccc1O (stereo not drawn) [2-[4-(5-Fluoro-2-hydroxyphenyl)-2-hydroxy-4-methyl-2-trifluoromethylpentyl]-1H-indole-6-carboxylic acid amide] | potent activity | –
CC(C)(CC(O)(Cc1cc2nc(-c3ccccc3)ncc2[nH]1)C(F)(F)F)c1ccccc1 (stereo not drawn) [1,1,1-Trifluoro-4-methyl-4-phenyl-2-(2-phenyl-5H-pyrrolo[3,2-d]pyrimidin-6-ylmethyl)pentan-2-ol] | – | potent agonists
COc1ccc(F)cc1C(C)(C)CC(O)(Cc1cc2cnccc2[nH]1)C(C)C (stereo not drawn) [5-(5-Fluoro-2-methoxyphenyl)-2,5-dimethyl-3-(1H-pyrrolo[3,2-c]pyridin-2-ylmethyl)hexan-3-ol] | – | agonists
COc1ccc2[nH]c(CC(O)(CC(C)(C)c3cc(Cl)cc4c3OCC4)C(F)(F)F)cc2n1 (stereo not drawn) [4-(5-Chloro-2,3-dihydrobenzofuran-7-yl)-1,1,1-trifluoro-2-(5-methoxy-1H-pyrrolo[3,2-b]pyridin-2-ylmethyl)-4-methylpentan-2-ol] | – | potent agonists
